Experimental findings from patent publication US9126999B2, “Tetrahydropyrazolopyrimidine compounds” (EISAI R&D MANAGEMENT CO., LTD., priority 2012, dated 2015) are described below.

The subject of this assay is BXSB-Yaa mice. Put plainly: BXSB-Yaa strain lupus disease model. The conditions noted are these: for proteinuria: UACR; for Grade 3/4 nephritis onset: kidney histopathology. The class given is in vivo, mouse. Here is the method: Figure Legend: Twelve week old BXSB-Yaa mice were randomized into groups with equivalent median anti-dsDNA titers and treated once-a-day orally with Vehicle (Veh; 0.5% methyl-cellulose) alone or 300 mg/kg ER-892887 for 14 weeks total. (A) All mice were sacrificed at 26 weeks of age and final anti-dsDNA, anti-Sm/nRNP, and anti-RiboP titers were evaluated by ELISA as compared to titers observed in 6 wk old pre-diseased mice. (B) Approximately one week prior to sacrifice (25 weeks of age, 13 weeks of treatment), mice were housed 1-2 per cage in metabolic cages for 18 hours to collect urine, and the Urinary Albumin Creatinine Ratio (UACR, proteinuria) was determined for each animal as an indirect measure of kidney function. (C) At the time of sacrifice, kidneys were collected from individual mice, fixed in 10% formalin for 24 hours, embedded in paraffin, and H&E stained sections were generated for histopathology assessment in a blinded fashion. (D) Summary of mortality observed in the SLE-8 study. Statistical significance was determined by Mann-Whitney test for (A).
Figure Legend: Nine week old male BXSB-Yaa mice were treated once-a-day orally with Vehicle (Veh; 0.5% methyl-cellulose) alone or 100 mg/kg or 300 mg/kg ER-885454 for 15 weeks total. All mice were sacrificed at 24 weeks of age and final anti-dsDNA (A) and anti-Sm/RNP (B) titers were evaluated by ELISA. (C) Approximately one week prior to sacrifice, mice were housed 1-2 per cage in metabolic cages for 18 hours to collect urine, and the Urinary Albumin Creatinine Ratio (UACR, proteinuria) was determined for each animal as an indirect measure of kidney function. (D) At the time of sacrifice, kidneys were collected from individual mice, fixed in 10% formalin for 24 hours, embedded in paraffin, and H&E stained sections were generated for histopathology assessment in a blinded fashion. Statistical significance was determined by Mann-Whitney test for (A), (B), and (C) above.
Figure Legend: Seventeen week old BXSB-Yaa mice were randomized into two groups with equivalent median anti-dsDNA titers and treated once-a-day orally with Vehicle (Veh; 0.5% methyl-cellulose) alone or 300 mg/kg ER-885454 for 13 weeks total. All mice were sacrificed at 30 weeks of age and final anti-dsDNA (A) and anti-Sm/RNP (B) titers were evaluated by ELISA as compared to titers observed in 7 wk old pre-diseased mice. (C) Approximately one week prior to sacrifice, mice were housed 1-2 per cage in metabolic cages for 18 hours to collect urine, and the Urinary Albumin Creatinine Ratio (UACR, proteinuria) was determined for each animal as an indirect measure of kidney function. (D) At the time of sacrifice, kidneys were collected from individual mice, fixed in 10% formalin for 24 hours, embedded in paraffin, and H&E stained sections were generated for histopathology assessment in a blinded fashion. Statistical significance was determined by Mann-Whitney test for (A), (B), and (C) above.
Male BXSB-Yaa and female NZBWF1/J mice were purchased from Jackson Labs (Bar Harbor, Me.), both of which manifest with spontaneous lupus disease. Female DBA/1 mice were purchased from Harlan Laboratories (Indianapolis, Ind.) and at the indicated ages given an intraperitoneal injection of 0.5 ml pristane (2,6,10,14-Tetramethylpentadecane; Sigma, St. Louis, Mo.) to chemically induce lupus disease or of 0.5 ml PBS to generate age-matched, non-diseased control mice. Mice were dosed daily by oral administration of compound or drug in 0.5% methylcellulose, for the time period indicated.
Anti-dsDNA, -Sm/nRNP, -RiboP, and Histone titers were evaluated by standard ELISA approach. Briefly, 96-well EIA/RIA ELISA plates (Corning) were coated with 100 ul of diluted antigen in PBS for 90 minutes at room temperature as follows (final concentrations indicated): 10 U/ml Sm/nRNP complex (Immunovision), 10 ug/ml calf thymus dsDNA (Sigma), 5 U/ml RiboP (Immunovision), and 5 ug/ml Histone (Immunovision). […]

For the compound `COc1ccc([C@@H]2C[C@H](C(F)(F)F)n3nc(-c4ccc(C(=O)N5CCNCC5)cc4)cc3N2)cc1OC` [ER-892887, (4-((5S,7R)-5-(3,4-dimethoxyphenyl)-7-(trifluoromethyl)-4,5,6,7-tetrahydropyrazolo[1,5-a]pyrimidin-2-yl)phenyl)(piperazin-1-yl)methanone], the proteinuria entry is “trend towards reduced proteinuria” and the “Grade 3/4 nephritis onset” value is listed as “complete prevention”. For the same compound, the anti-dsDNA titers entry (once-a-day oral) is listed as “significantly reduced”.

As to `COc1ccc([C@@H]2C[C@H](C(F)(F)F)n3nc(-c4ccncc4)cc3N2)cc1OC` [ER-885454], the proteinuria entry is “significantly reduced proteinuria” and the “Grade 3/4 nephritis onset” value was “complete prevention”. Under “once-a-day oral”, the anti-Sm/nRNP titers result was “significantly reduced” and the anti-dsDNA titers entry is on record as “significantly reduced”.
